Experimental data published in US10556866B2, “ROR gamma (RORγ) modulators” (LEAD PHARMA HOLDING B.V., priority 2015, dated 2020).

Molecular target: T1, RORγ (Homo sapiens, UniProt P51449)
T1 construct: expressed in transfected cells; host or cells: 293FT cells (Invitrogen), expression vector pFN26A (Promega)
T1 sequence (P51449 269-508 limits assumed): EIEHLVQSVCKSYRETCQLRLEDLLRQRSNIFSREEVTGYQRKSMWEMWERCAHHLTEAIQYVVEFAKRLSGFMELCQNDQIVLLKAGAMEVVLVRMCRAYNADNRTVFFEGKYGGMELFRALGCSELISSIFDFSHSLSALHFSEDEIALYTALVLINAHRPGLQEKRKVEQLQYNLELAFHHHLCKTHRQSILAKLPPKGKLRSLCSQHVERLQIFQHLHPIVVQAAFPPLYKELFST
Assay: RORγ GAL4 reporter gene assay (luciferase readout)
Format: cell-based
Settings: inhibition of RORγ (GAL4-RORγ-LBD) in 293FT cells, luciferase signal; read-out: mean pIC50 (converted)
Protocol: Example inhibitors 1-38 were tested for their ability to inhibit RORγ activity in a RORγ GAL4 reporter gene assay. The assay procedure and results are described below.
A GAL4 one-hybrid reporter system employing luciferase readout was established to determine inhibition of RORγ in 293FT cells. The RORγ ligand-binding domain (LBD) was fused to the yeast GAL4 DNA binding domain (DBD) and placed under the control of the human cytomegalovirus (CMV) immediate early promoter, using expression vector pFN26A (Promega) and standard recombinant DNA cloning methods. To serve as a control in the assay, a similar vector was generated in which the GAL4-DBD was fused to Herpes simplex virus protein 16 (VP16), a constitutive transcriptional activator.
To monitor the inhibitory effect of compounds on RORγ, a transcriptional reporter construct was used. The pGL4.35 vector (Promega) contains nine copies of the GAL4 Upstream Activator Sequence (UAS). This sequence drives the transcription of the luciferase reporter gene luc2P in response to binding of a fusion protein containing the GAL4 DNA binding domain, as for example expressed by the GAL4-RORγ-LBD and GAL4-VP16 expression vectors described above. To allow a GAL4 fusion protein to drive the expression of the luciferase reporter, the pGL4.35 expression vector and the appropriate GAL4 fusion protein expression vector were bulk transfected in the 293FT cells using standard transfection techniques.
The day after transfection, cells were plated into 96 well plates, test compound was added and the plates were incubated overnight. Subsequently, the firefly luciferase activity was quantified using luciferase detection reagent and luminescence readout.
293FT cells (Invitrogen) were transfected with a GAL4 fusion protein expression vector (as described above) and the transcriptional reporter construct (pGL4.35, Promega). 60 μL of TransIT-293 transfection reagent (Mirus Bio) was added drop wise to 1500 μl Opti-MEM I Reduced Serum Medium (Invitrogen) and incubated at RT (RT) for 5 to 20 minutes. 1500 μL of this reagent mixture was added to 5 μg of GAL4 fusion protein expression vector and 5 μg of the transcriptional reporter construct, and incubated at RT for 20 minutes.
To harvest 293FT cells from a T75 flask, first the culture medium was taken off the cells. Subsequently, the cells were washed with Phosphate Buffered Saline (PBS) (Lonza), after which the PBS was removed. To dissociate the cells, 1 ml of TrypLE Express (Invitrogen) was added to the flask, followed by incubation at RT until the cells visually started to detach. Cells were collected in 5 mL of assay medium (DMEM culture medium (Lonza), 10% dialyzed FBS (Invitrogen) and Pen/Strep (Lonza)) to achieve a single cell suspension. 10×10^6 cells were spun down and re-suspended in 10 mL of assay medium. Subsequently, the cell suspension was added to the transfection mix tube, and then transferred as a whole to a T75 flask (Greiner), followed by overnight (16-24 hours) incubation at 37° C. and 5% CO2.
For compound screening, the cells were harvested (as described above) and counted. 13×10^6 cells were spun down, the supernatant was aspirated and the cells were re-suspended in 17.3 mL of assay medium obtaining a cell suspension of 0.75×10^6 cells/mL. 80 μL of cell suspension (60,000 cells) was plated per well into a white, flat bottom, tissue culture treated, 96 well screening plates (Greiner).
Test compounds were diluted, starting from a 10 mM dimethylsulfoxide (DMSO) stock solution, to serial dilutions in DMSO at 500× the final test concentration. Subsequently, these solutions were diluted to 5× the final test concentration in two 10-fold-dilution steps in assay medium. The final DMSO concentration of the 5× test compound solution was 1%. 20 μL of the 5× test compound solution was added to each test well of the 96 well plate previously plated with 80 μl cell suspension, resulting in the final test concentration with 0.2% DMSO. […]

Q: For `CCC(O)(c1ccc(C(=O)NCc2ccc(S(=O)(=O)CC3CC3)cc2)cc1)C(F)(F)F` (racemic) [(+)-1, (+)-N-[[4-(cyclopropylmethylsulfonyl)phenyl]methyl]-4-[1-hydroxy-1-(trifluoromethyl)propyl]benzamide], which IC50 is on record?
A: ≤ 100 nM

Q: `CCC(O)(c1ccc(C(=O)NCc2ccc(S(=O)(=O)CC3CC3)cc2)cc1)C(F)(F)F` (racemic) [(−)-1, (−)-N-[[4-(cyclopropylmethylsulfonyl)phenyl]methyl]-4-[1-hydroxy-1-(trifluoromethyl)propyl]benzamide] was tested. Which IC50 did it give?
A: ≤ 1000 nM

Q: With `CCC(O)(c1ccc(C(=O)NCc2ccc(S(=O)(=O)CC3CC3)cc2)cc1)C(F)(F)F` (racemic) [Example 1, N-[[4-(cyclopropylmethylsulfonyl)phenyl]methyl]-4-[1-hydroxy-1-(trifluoromethyl)propyl]benzamide] as the molecule, how does the IC50 read?
A: ≤ 100 nM

Q: With `CC(O)(c1ccc(C(=O)NCc2ccc(S(=O)(=O)CC3CC3)cc2)cc1)C(F)(F)F` (centres unmarked) [Example 2, N-[[4-(cyclopropylmethylsulfonyl)phenyl]methyl]-4-(2,2,2-trifluoro-1-hydroxy-1-methyl-ethyl)benzamide] as the molecule, how does the IC50 read?
A: ≤ 1000 nM

Q: Which IC50 does the source give for `CC(C)(O)c1ccc(C(=O)NCc2ccc(S(=O)(=O)CC3CC3)cc2)cc1` [Example 3, N-[[4-(cyclopropylmethylsulfonyl)phenyl]methyl]-4-(1-hydroxy-1-methyl-ethyl)benzamide] here?
A: > 10000 nM

Q: `O=C(NCc1ccc(S(=O)(=O)CC2CC2)cc1)c1ccc(C(O)(C(F)(F)F)C(F)(F)F)cc1` [Example 4, N-[[4-(cyclopropylmethylsulfonyl)phenyl]methyl]-4-[2,2,2-trifluoro-1-hydroxy-1-(trifluoromethyl)ethyl]benzamide] was tested. Which IC50 did it give?
A: ≤ 100 nM

Q: For `CCCC(O)(c1ccc(C(=O)NCc2ccc(S(=O)(=O)CC3CC3)cc2)cc1)C(F)(F)F` (centres unmarked) [Example 6, N-[[4-(cyclopropylmethylsulfonyl)phenyl]methyl]-4-[1-hydroxy-1-(trifluoromethyl)butyl]benzamide], which IC50 is on record?
A: ≤ 100 nM

Q: With `CCCCC(O)(c1ccc(C(=O)NCc2ccc(S(=O)(=O)CC3CC3)cc2)cc1)C(F)(F)F` (centres unmarked) [Example 7, N-[[4-(cyclopropylmethylsulfonyl)phenyl]methyl]-4-[1-hydroxy-1-(trifluoromethyl)pentyl]benzamide] as the molecule, how does the IC50 read?
A: ≤ 100 nM

Q: For `CC(C)CC(O)(c1ccc(C(=O)NCc2ccc(S(=O)(=O)CC3CC3)cc2)cc1)C(F)(F)F` (centres unmarked) [Example 8, N-[[4-(cyclopropylmethylsulfonyl)phenyl]methyl]-4-[1-hydroxy-3-methyl-1-(trifluoromethyl)butyl]benzamide], which IC50 is on record?
A: ≤ 100 nM

Q: For `CC(C)(C)CC(O)(c1ccc(C(=O)NCc2ccc(S(=O)(=O)CC3CC3)cc2)cc1)C(F)(F)F` (centres unmarked) [Example 9, N-[[4-(cyclopropylmethylsulfonyl)phenyl]methyl]-4-[1-hydroxy-3,3-dimethyl-1-(trifluoromethyl)butyl]benzamide], which IC50 is on record?
A: ≤ 100 nM

Q: `CC(C)C(O)(c1ccc(C(=O)NCc2ccc(S(=O)(=O)CC3CC3)cc2)cc1)C(F)(F)F` (centres unmarked) [Example 10, N-[[4-(cyclopropylmethylsulfonyl)phenyl]methyl]-4-[1-hydroxy-2-methyl-1-(trifluoromethyl)propyl]benzamide] was tested. Which IC50 did it give?
A: ≤ 100 nM

Q: For `O=C(NCc1ccc(S(=O)(=O)CC2CC2)cc1)c1ccc(C(O)(C2CC2)C(F)(F)F)cc1` (centres unmarked) [Example 11, N-[[4-(cyclopropylmethylsulfonyl)phenyl]methyl]-4-(1-cyclopropyl-2,2,2-trifluoro-1-hydroxy-ethyl)benzamide], which IC50 is on record?
A: ≤ 100 nM

Q: With `O=C(NCc1ccc(S(=O)(=O)CC2CC2)cc1)c1ccc(C(O)(C2CCCC2)C(F)(F)F)cc1` (centres unmarked) [Example 12, 4-(1-cyclopentyl-2,2,2-trifluoro-1-hydroxy-ethyl)-N-[[4-(cyclopropylmethylsulfonyl)phenyl]methyl]benzamide] as the molecule, how does the IC50 read?
A: ≤ 100 nM

Q: For `O=C(NCc1ccc(S(=O)(=O)CC2CC2)cc1)c1ccc(C(O)(c2ccccc2)C(F)(F)F)cc1` (centres unmarked) [Example 13, N-[[4-(cyclopropylmethylsulfonyl)phenyl]methyl]-4-(2,2,2-trifluoro-1-hydroxy-1-phenyl-ethyl)benzamide], which IC50 is on record?
A: ≤ 1000 nM
